Assay [1] has as its target GTPγS-bound human HRasG12V / human c-Raf-1 Ras binding domain (RBD) (Homo sapiens (Human), UniProt P01112, G12V). The assay is described as follows: Ras-Raf binding inhibition ELISA. As for the experimental part:
The in vitro Ras-Raf binding inhibitory activity of the compound of the present invention was evaluated by an ELISA method (Enzyme-Linked ImmunoSorbent Assay) described below.
Ras and Raf used upon the evaluation were purified and activated by the following method.
Using a pGEX6P-1 vector (GE Healthcare), human HRasG12V (full length, 1-189 amino acid residues) and human c-Raf-1 Ras binding domain (RBD) (50-131 amino acid residues) were each allowed to express as a fusion body with glutathione S-transferase (GST) in E. coli.
GST-HRasG12V-expressing cells were subjected to ultrasonication in a buffer {50 mM Tris-HCl pH 7.4, 150 mM NaCl, 5 mM MgCl2, 1 mM ethylenediaminetetraacetic acid (EDTA), 1 mM dithiothreitol (DTT), 10% glycerol, and 1% Triton-X100}, and were then centrifuged at 100,000×g for 30 minutes, so as to collect the supernatant as a Ras protein fraction. HRasG12V in the supernatant was immobilized on a glutathione-agarose resin, and GST was then cleaved with PreScission Protease (GE Healthcare) for purification. The obtained HRasG12V was mixed with guanosine 5′-O-[gamma-thio]triphosphate trisodium salt (GTPTS) of 1000 times higher concentration at 30° C. for 1 hour, and thereafter, 20 mM MgCl2 (final concentration) was added to stop the reaction and collect the GTPgS-loaded HRasG12V as a product.
On the other hand, GST-c-Raf-1 RBD-expressing cells were subjected to ultrasonication in the same buffer as described above, and were then centrifuged at 100,000×g for 30 minutes, so as to collected the supernatant as a GST-c-Raf-1 RBD protein fraction.
The in vitro Ras-Raf binding inhibitory activity of the compound of the present invention was evaluated by an ELISA method described below.
GST-c-Raf-1 RBD diluted with a Ras-Raf binding buffer (50 mM Tris-HCl pH7.4, 150 mM NaCl, 5 mM MgCl2, 1 mM EDTA, and 1% Triton-X100) was added to each well of a glutathione-coated 96-well plate (Thermo Fisher Scientific.), and was incubated at 30° C. for 1 hour, to immobilize Raf on the well. The unbound free Raf was eliminated by washing the well with the Ras-Raf binding buffer three times. Subsequently, GTPTS-bound HRasG12V diluted with the Ras-Raf binding buffer and each compound solution (final DMSO concentration: 10%) were applied to each well, and the resulting mixture was then incubated at 30° C. for 1 hour, so that Ras and Raf were allowed to bind to each other. Thereafter, the plate was washed with the Ras-Raf binding buffer twice, and was then subjected to a blocking treatment at room temperature for 20 minutes, using TBS-Tween {10 mM Tris-HCl pH 7.4, 150 mM NaCl, and 0.05% (w/v) Tween-20}-5% (w/v) bovine serum albumin (BSA). After that, an anti-HRas antibody (C-20, Santa Cruz) or an anti-HRas antibody (259, Santa Cruz), which had been 1000 times diluted with TBS-Tween-5% BSA, was added to the reaction mixture, and incubated at room temperature for 1 hours. After the treatment with the primary antibody, the plate was washed with TBS-Tween-5% BSA three times, and a horseradish peroxidase-labeled secondary antibody against rabbit immunoglobulin G (GE Healthcare) of 1000 times diluted with TBS-Tween-5% BSA, was added to the plate, followed by incubation at room temperature for 1 hour. After the treatment with the secondary antibody, the plate was washed with TBS-Tween-5% BSA three times, and a substrate solution (TMB) was then added to the plate, followed by incubation at room temperature for 15 minutes for coloration. Finally, 2 M H2SO4 was added to stop color development (coloration reaction kit: Nacalai Tesque). The absorbance at 450 nm (OD450) was measured, so that the color intensity was quantified. Inhibition by the test compound was determined according to the following equation: […]
IC50 (*) in which the anti-HRas antibody (259, Santa Cruz) was used
On the technique in general: In an ELISA, binding on a coated surface is turned into a signal by an enzyme label.

Assay [2] has as its system promyelocytic leukemia cells HL60 (N-RasQ61L). Description: Cell growth inhibition, suspension cells HL60. It is filed as cell-based. To be noted: Homo sapiens, HL-60, 72 hours; for inhibition at 3.3 µM: read-out: HL-60 (NRasQ61L) % inhibition at 3.3 μM (**); for inhibition at 10 µM: read-out: HL-60 (NRasQ61L) % inhibition at 10 μM (***). As for the experimental part: (§1) The cell growth inhibitory activity of the compound of the present invention on human culture cells having active-type mutation in Ras was evaluated by the below-mentioned method using suspension cancer cells {acute lymphoblastic leukemia cells CCRF-CEM (K-RasG12D), promyelocytic leukemia cells HL60 (N-RasQ61L), acute lymphoblastic leukemia cells MOLT4 (N-RasG12C), and small cell lung cancer cells SHP77 (K-RasG12V)} and adherent cancer cells {large bowel cancer cells SW480 (K-RasG12V) and large bowel cancer cell SW620 (K-RasG12V)}.
(Case of suspension cells) The cells suspended in a medium containing 0.5% (v/v) fetal bovine serum (FBS) and each compound solution (final DMSO concentration: 1%) were seeded on a 96-well plate (2 to 4×10^4 cells/well), and the resulting mixture was then cultured at 37° C. in the presence of 5% CO2 for 72 hours.
(§2) Thereafter, the number of viable cells was measured using Cell Counting Reagent (Nacalai Tesque) in accordance with the manufacturer's instructions. Inhibition by the test compound was determined according to the following equation: […]

In assay [3] the test system is large bowel cancer cell SW620 (K-RasG12V). The assay is described as follows: Cell growth inhibition, adherent cells SW620. It is filed as cell-based. To be noted: Homo sapiens, SW-620, 72 hours; for inhibition at 3.2 µM: read-out: SW620 (KRasG12V) % inhibition at 3.2 μM (***); for inhibition at 1 µM: read-out: SW620 (KRasG12V) % inhibition at 1 μM. As for the experimental part: as §1
(Case of adherent cells) The cells suspended in a medium containing 10% FBS (1 to 2×10^4 cells/well) were seeded on a 96-well plate, and were then cultured at 37° C. in the presence of […]. Thereafter, the medium was exchanged with a medium containing […], to which each compound solution (final DMSO concentration: […]) had been added, and the cells were then cultured at 37° C. in the presence of […] for 72 hours.
as §2

The mark [4] stands for this setting: anti-HRas antibody C-20, read-out: ELISA IC50 (μM): 1st Ab_C-20.
[5] abbreviates: anti-HRas antibody 259 (*), read-out: ELISA IC50 (μM): 1st Ab_259 (*).

Read-outs that look alike come from different tables or passages of the source.

Chain of GTPγS-bound human HRasG12V / human c-Raf-1 Ras binding domain (RBD) (P01112 whole entry G12V, the tested form may be a part): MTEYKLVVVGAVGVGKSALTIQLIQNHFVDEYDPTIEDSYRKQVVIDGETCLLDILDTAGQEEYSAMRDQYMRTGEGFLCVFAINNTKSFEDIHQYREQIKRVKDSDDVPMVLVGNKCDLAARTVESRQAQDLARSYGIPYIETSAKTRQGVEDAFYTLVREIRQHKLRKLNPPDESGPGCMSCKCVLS

In general, inhibition refers to the share of the control response that was lost under treatment. In general, IC50 refers to the concentration that gives 50% inhibition. Take `CC(=O)N1C(=Cc2cc(-c3ccc4c(c3)CCNC4=O)c3cc(C(=O)N4CCOCC4)ccc3n2)C(=O)c2ccccc21` (racemic) [Example 147, 6-(2-((1-acetyl-3-oxoindolin-2-ylidene)methyl)-6-(morpholine-4-carbonyl)quinolin-4-yl)-3,4-dihydro-isoquinolin-1(2H)-one]: 1 µM produced 66.1% inhibition in assay [1]. For the same molecule, in assay [1] (setting [4]), the IC50 is 0.5 µM. For the same molecule, the inhibition at 3.2 µM in assay [2] (3.2 μM (****), read-out: HL-60 (NRasQ61L) % inhibition at 3.2 μM (****)) was 59.1%; in assay [3], 92.2%.

On to `CC(=O)N1/C(=C\c2cc(-c3cccc(-c4ccccc4)c3)c3cc(C(=O)N4CCOCC4)ccc3n2)C(=O)c2ccccc21` [Example 88, (Z)-2-((4-([1,1′-biphenyl]-3-yl)-6-(morpholine-4-carbonyl)quinolin-2-yl)methylene)-1-acetylindolin-3-one], for which the IC50 in assay [1] (setting [4]) was determined as 0.98 µM. The inhibition at 3.3 µM in assay [2] was determined as 89%. For the same molecule, the inhibition at 1 µM in assay [3] is 46%.

For the molecule `CC(=O)N1/C(=C\c2cc(-c3ccccc3-c3ccccc3)c3cc(C(=O)N4CCOCC4)ccc3n2)C(=O)c2ccccc21` [Example 89, (Z)-2-((4-([1,1′-biphenyl]-2-yl)-6-(morpholine-4-carbonyl)quinolin-2-yl)methylene)-1-acetylindolin-3-one], in assay [1] (setting [4]), the IC50 is 0.5 µM. For the same molecule, the inhibition at 1.1 µM in assay [2] (1.1 μM (*), read-out: HL-60 (NRasQ61L) % inhibition at 1.1 μM (*)) was 95%. Moreover, the inhibition at 1 µM in assay [3] was determined as 71%.

Consider `CC(=O)N1/C(=C\c2cc(-c3cccc4cccnc34)c3cc(C(=O)N4CCOCC4)ccc3n2)C(=O)c2ccccc21` [Example 91, (Z)-1-acetyl-2-((6-(morpholine-4-carbonyl)-[4,8′-biquinolin]-2-yl)-methylene)indolin-3-one], for which the IC50 in assay [1] (setting [4]) turned out to be 0.87 µM. Further, the inhibition at 3.3 µM in assay [2] was found to be 97%. In addition, the inhibition at 1 µM in assay [3] stood at 70%.

On to `CC(=O)N1C(=Cc2cc(-c3cccnc3-c3ccccc3)c3cc(C(=O)N4CCOCC4)ccc3n2)C(=O)c2ccccc21` [Example 94, 1-acetyl-2-((6-(morpholine-4-carbonyl)-4-(2-phenylpyridin-3-yl)quinolin-2-yl)-methylene)indolin-3-one], for which, in assay [2], the inhibition at 3.3 µM worked out at 96%. In addition, in assay [3], the inhibition at 1 µM is 82%.

For the molecule `CC(=O)N1/C(=C\c2nc3cc(C(=O)N4CC(C)OC(C)C4)ccc3s2)C(=O)c2ccccc21` (centres unmarked) [Example 98, (Z)-1-acetyl-2-((5-(2,6-dimethyl-morpholine-4-carbonyl)benzo [d]thiazol-2-yl)-methylene)indolin-3-one], the IC50 in assay [1] (setting [5]) was found to be 0.68 µM. Also, the inhibition at 10 µM in assay [2] worked out at 100%.

Take `CC(=O)N1/C(=C\c2nc3ccc(C(=O)N4CC(C)OC(C)C4)cc3s2)C(=O)c2ccccc21` (centres unmarked) [Example 100, (Z)-1-acetyl-2-((6-(2,6-dimethyl-morpholine-4-carbonyl)benzo [d]thiazol-2-yl)-methylene)indolin-3-one]: the IC50 in assay [1] (setting [5]) amounted to 0.77 µM. Further, the inhibition at 10 µM in assay [2] was found to be 87%.

Regarding `CC(=O)N1/C(=C/c2cc(-c3ccnc4ccccc34)c3cc(C(=O)N4CCOCC4)ccc3n2)C(=O)c2ccccc21` [Example 117, (E)-1-acetyl-2-((6-(morpholine-4-carbonyl)-[4,4′-biquinolin]-2-yl)-methylene)indolin-3-one], in assay [2], the inhibition at 3.3 µM amounted to 94%. The inhibition at 1 µM in assay [3] amounted to 66%.

With `CC(=O)N1/C(=C\c2ccc3cc(CNC4CCN(C5COC5)CC4)ccc3n2)C(=O)c2ccccc21` [Example 138, (Z)-1-acetyl-2-((6-(((1-(oxetan-3-yl)piperidin-4-yl)amino)meth-yl)quinolin-2-yl)-methylene)indolin-3-one], the 50% inhibitory concentration (IC50) in assay [1] (setting [5]) is 0.88 µM. The inhibition at 3.3 µM in assay [2] was found to be 65%.

In the case of `CC(=O)N1/C(=C\c2cc(-c3cn[nH]c3)c3cc(C(=O)N4CCOCC4)ccc3n2)C(=O)c2ccccc21` [Example 170, (Z)-1-acetyl-2-((6-(morpholine-4-carbonyl)-4-(1H-pyrazol-4-yl)quinolin-2-yl)-methylene)indolin-3-one], in assay [1], the inhibition at 1 µM is 66.8%. For the same molecule, the IC50 in assay [1] (setting [4]) was 0.5 µM. In addition, the inhibition at 3.2 µM in assay [3] was found to be 41.6%.

`CC(=O)N1/C(=C\c2cc(-c3cnn(C)c3)c3cc(C(=O)N4CCOCC4)ccc3n2)C(=O)c2ccccc21` [Example 171, (Z)-1-acetyl-2-((4-(1-methyl-1H-pyrazol-4-yl)-6-(morpholine-4-carbonyl)quinolin-2-yl)methylene)-indolin-3-one]: 1 µM produced 72% inhibition in assay [1]. Moreover, the IC50 in assay [1] (setting [4]) is 0.4 µM. Also, the inhibition at 3.2 µM in assay [3] came out at 79.5%.

Take `CC(=O)N1/C(=C\c2cc(-c3ncn(C)n3)c3cc(C(=O)N4CCOCC4)ccc3n2)C(=O)c2ccccc21` [Example 188, (Z)-1-acetyl-2-((4-(1-methyl-1H-1,2,4-triazol-3-yl)-6-(morpholine-4-carbonyl)quinolin-2-yl)methylene)-indolin-3-one]: the inhibition at 1 µM in assay [1] was determined as 53.7%. In assay [1] (setting [4]), the IC50 is 0.9 µM. The inhibition at 3.2 µM in assay [3] turned out to be 79.3%.

In the case of `CC(=O)N1/C(=C\c2cc(-c3cnn(C)c3)c3cc(CNC4CCOCC4)ccc3n2)C(=O)c2ccccc21` [Example 205, (Z)-1-acetyl-2-((4-(1-methyl-1H-pyrazol-4-yl)-6-(((tetrahydro-2H-pyran-4-yl)amino)-methyl)quinolin-2-yl)methylene)-indolin-3-one], in assay [1], the inhibition at 1 µM amounted to 66.3%. The IC50 in assay [1] (setting [4]) came out at 0.7 µM. In addition, the inhibition at 3.2 µM in assay [3] is 37%.

These data come from US20250091994A1, “RAS/RAF BINDING INHIBITOR COMPOUND” (NATIONAL UNIVERSITY CORPORATION KOBE UNIVERSITY, priority 2021, published 2025).
